Measurements: patent publication US8415342B2, “Besifloxacin ophthalmic composition for the treatment or control of infection” (Bausch & Lomb Incorporated, priority 2008, dated 2013)
Values after ≈ are worked out from the molar mass of the structure shown. Where two headings read alike, the source gives them in different places.

Legend:
bacterial conjunctivitis = assay: Study 373: besifloxacin ophthalmic suspension vs vehicle, TID 5 days; conditions: N = 60; for Clinical Resolution (2 indices), Resolution / Clinical Resolution (3 indices), No / Clinical Resolution (3 indices), Yes / Microbial Eradication, No / Microbial Eradication, Yes: ITT culture confirmed; for Clinical Resolution (2 indices), Non-resolution: missing or discontinued imputed as non-resolution
[1] = test system: ocular isolates (S. pneumoniae, S. epidermidis, H. influenzae, and S. aureus); assay: MBC versus MIC, all recent ocular isolates tested; type: cell-based
From the text: The success of in vivo antimicrobial action depends to a large extent on the host's defense mechanisms, which ultimately sequester and kill the microorganisms that have been reduced by the bacteriostatic/bactericidal action of the antibacterial agent. Thus, it is also of interest to profile the bactericidal activity of antimicrobial agents. The assessment of in vitro bactericidal activity can be accomplished in multiple ways, for example, the time-kill method or the determination of the minimum bactericidal concentration (MBC). […] Bactericidal agents are characterized by low MBC:MIC ratios.

[2] = test system: Pathogens Associated With Bacterial Conjunctivitis; assay: Integrated besifloxacin MIC data from preclinical (nonclinical) studies (Table 8); type: cell-based
[3] = Visit 3 (Day 8 or 9), primary endpoint
[4] = Clostridium perfringens, N 21, agar dilution

## N[C@@H]1CCCCN(c2c(F)cc3c(=O)c(C(=O)O)cn(C4CC4)c3c2Cl)C1 [Besifloxacin, (R)-(+)-(3-amino-2,3,4,5,6,7-hexahydro-1H-azepin-1-yl)-8-chloro-1-cyclopropyl-6-fluoro-1,4,-dihydro-4-oxo-3-quinolinecarboxylic acid]
Bacterial conjunctivitis; Visit 2 (Day 4 ± 1)
  Clinical Resolution (2 indices), Resolution: 20 (33.3) n (%)
  Clinical Resolution (3 indices), No: 46 (76.7) n (%)
  Clinical Resolution (3 indices), Yes: 14 (23.3) n (%)
  Microbial Eradication, No: 6 (10.0) n (%)
  Microbial Eradication, Yes: 54 (90.0) n (%)
  Clinical Resolution (2 indices), Non-resolution: 40 (66.7) n (%)
Bacterial conjunctivitis; Visit 3 (Day 8 or 9)
  Clinical Resolution (2 indices), Resolution: 44 (73.3) n (%)
  Clinical Resolution (3 indices), No: 23 (38.3) n (%)
  Microbial Eradication, No: 6 (10.0) n (%)
  Clinical Resolution (2 indices), Non-resolution: 16 (26.7) n (%)
Bacterial conjunctivitis; [3]
  Clinical Resolution (3 indices), Yes: 37 (61.7) n (%)
  Microbial Eradication, Yes: 54 (90.0) n (%)
[1]
  isolates with MBC within 4-fold of the MIC: more than 80%
[2]; Acinetobacter baumannii, Acinetobacter baumanii Quinolone-R, N 5, read-out: MIC50
  MIC50: > 8 µg/mL
[2]; Acinetobacter baumannii, Acinetobacter baumanii Quinolone-S, N 43, read-out: MIC50
  MIC50: 0.5 µg/mL (≈ 1.27 µM)
[2]; Acinetobacter baumannii, Acinetobacter baumanii Quinolone-S, N 43, read-out: MIC90
  MIC90: 2 µg/mL (≈ 5.08 µM)
[2]; Acinetobacter baumannii-calcoaceticus Quinolone-R, N 10, read-out: MIC50
  MIC50: > 8 µg/mL
[2]; Acinetobacter baumannii-calcoaceticus Quinolone-R, N 10, read-out: MIC90
  MIC90: > 8 µg/mL
[2]; Acinetobacter baumannii-calcoaceticus Quinolone-S, N 23
  MIC Range: 0.12 to 4 µg/mL
[2]; Acinetobacter baumannii-calcoaceticus Quinolone-S, N 23, read-out: MIC50
  MIC50: 0.5 µg/mL (≈ 1.27 µM)
[2]; Acinetobacter lwoffii, N 13
  MIC Range: 0.12 to 2 µg/mL
[2]; Acinetobacter lwoffii, N 13, read-out: MIC50
  MIC50: 0.5 µg/mL (≈ 1.27 µM)
[2]; Acinetobacter lwoffii, N 13, read-out: MIC90
  MIC90: 0.5 µg/mL (≈ 1.27 µM)
[2]; Bacteroides fragilis, N 20, agar dilution, read-out: MIC50
  MIC50: 0.5 µg/mL (≈ 1.27 µM)
[2]; Bacteroides fragilis, N 20, agar dilution, read-out: MIC90
  MIC90: 1 µg/mL (≈ 2.54 µM)
[2]; Citrobacter koser Quinolone-R, N 1
  MIC Range: >8 µg/mL
[2]; Citrobacter koser Quinolone-S, N 99
  MIC Range: 0.03 to 4 µg/mL
[2]; Citrobacter koser Quinolone-S, N 99, read-out: MIC90
  MIC90: 0.25 µg/mL (≈ 0.635 µM)
[2]; [4]
  MIC50: 0.25 µg/mL (≈ 0.635 µM)
  MIC90: 0.25 µg/mL (≈ 0.635 µM)
  MIC Range: 0.12 to 0.25 µg/mL
[2]; Corynebacterium species, N 30, agar dilution
  MIC Range: ≦0.06-2 μg/mL
[2]; Corynebacterium species, N 30, agar dilution, read-out: MIC50
  MIC50: 0.25 µg/mL (≈ 0.635 µM)
[2]; Corynebacterium species, N 30, agar dilution, read-out: MIC90
  MIC90: 2 µg/mL (≈ 5.08 µM)
[2]; Cutibacterium acnes, Propionibacterium acnes, N 21, agar dilution, read-out: MIC50
  MIC50: 0.25 µg/mL (≈ 0.635 µM)
[2]; Cutibacterium acnes, Propionibacterium acnes, N 21, agar dilution, read-out: MIC90
  MIC90: 0.25 µg/mL (≈ 0.635 µM)
[2]; Enterobacter aerogene Quinolone-S, N 37
  MIC Range: 0.12 to 4 µg/mL
[2]; Enterobacter aerogene Quinolone-S, N 37, read-out: MIC50
  MIC50: 0.25 µg/mL (≈ 0.635 µM)
[2]; Enterobacter aerogene Quinolone-S, N 37, read-out: MIC90
  MIC90: 2 µg/mL (≈ 5.08 µM)
[2]; Enterobacter cloacae Quinolone-R, N 1
  MIC Range: >8 µg/mL
[2]; Enterobacter cloacae Quinolone-S, N 58
  MIC Range: 0.12 to 2 µg/mL
[2]; Enterobacter cloacae, Enterobacter cloacae Quinolone-S, N 58, read-out: MIC50
  MIC50: 0.25 µg/mL (≈ 0.635 µM)
[2]; Enterobacter cloacae, Enterobacter cloacae Quinolone-S, N 58, read-out: MIC90
  MIC90: 0.5 µg/mL (≈ 1.27 µM)
[2]; Fusobacterium species, N 21, agar dilution
  MIC Range: 0.12 to 8 µg/mL
[2]; Fusobacterium species, N 21, agar dilution, read-out: MIC50
  MIC50: 0.25 µg/mL (≈ 0.635 µM)
[2]; H. influenzae, value used for PK/PD ratios of Study 424
  MIC90: ^bMIC90: H. influenzae ≦0.06 μg/mL.
[2]; Haemophilus influenzae (all phenotypes), N 243
  MIC Range: ≦0.004-0.25 μg/mL
[2]; Haemophilus influenzae β-lactamase+, N 118
  MIC Range: 0.008 to 0.12 µg/mL
[2]; Haemophilus influenzae β-lactamase−, N 100
  MIC Range: ≦0.004-0.12 μg/mL
[2]; Haemophilus influenzae, H. influenzae, value used for PK/PD ratios of Study 424, read-out: MIC90
  MIC90: ≤ 0.06 µg/mL
[2]; Haemophilus influenzae, Haemophilus influenzae (all phenotypes), N 243, read-out: MIC50
  MIC50: 0.03 µg/mL (≈ 0.0762 µM)
[2]; Haemophilus influenzae, Haemophilus influenzae β-lactamase+, N 118, read-out: MIC50
  MIC50: 0.03 µg/mL (≈ 0.0762 µM)
[2]; Haemophilus influenzae, Haemophilus influenzae β-lactamase− Ampicillin-R, N 25, read-out: MIC50
  MIC50: 0.12 µg/mL (≈ 0.305 µM)
[2]; Haemophilus influenzae, Haemophilus influenzae β-lactamase− Ampicillin-R, N 25, read-out: MIC90
  MIC90: 0.25 µg/mL (≈ 0.635 µM)
[2]; Haemophilus influenzae, Haemophilus influenzae β-lactamase−, N 100, read-out: MIC50
  MIC50: 0.03 µg/mL (≈ 0.0762 µM)
[2]; Key Organisms Quinolone-S, N 894
  MIC Range: ≦0.004-1 μg/mL
[2]; Key Organisms Quinolone-S, N 894, read-out: MIC50
  MIC50: 0.06 µg/mL (≈ 0.152 µM)
[2]; Key Organisms Quinolone-S, N 894, read-out: MIC90
  MIC90: 0.12 µg/mL (≈ 0.305 µM)
[2]; Key Organisms combined, N 1205
  MIC50: 0.06 µg/mL
[2]; Key Organisms combined, N 1205, read-out: MIC90
  MIC90: 1 µg/mL
[2]; Klebsiella oxytoca Quinolone-R, N 5
  MIC Range: 1 to 8 µg/mL
[2]; Klebsiella oxytoca Quinolone-R, N 5, read-out: MIC50
  MIC50: 8 µg/mL (≈ 20.3 µM)
[2]; Klebsiella oxytoca Quinolone-S, N 45
  MIC Range: 0.06 to 1 µg/mL
[2]; Klebsiella oxytoca, Klebsiella oxytoca Quinolone-S, N 45, read-out: MIC90
  MIC90: 0.5 µg/mL (≈ 1.27 µM)
[2]; Legionella pneumophila, N 50
  MIC50: 0.03 µg/mL (≈ 0.0762 µM)
  MIC90: 0.03 µg/mL (≈ 0.0762 µM)
  MIC Range: 0.015 to 0.06 µg/mL
[2]; Moraxella catarrhalis, N 201, read-out: MIC50
  MIC50: 0.06 µg/mL (≈ 0.152 µM)
[2]; Moraxella catarrhalis, N 201, read-out: MIC90
  MIC90: 0.12 µg/mL (≈ 0.305 µM)
[2]; Moraxella species, N 30, agar dilution
  MIC Range: ≦0.06-0.13 μg/mL
